Read-outs that look alike come from different tables or passages of the source.
How the values were obtained:
[1] = assay type: physicochemical; conditions: 37°C; for S: solubility: calculated as free form; for FC: crystal transfer: XRPD of solid; for pH: pH of filtrate
[2] = in vivo; design: species or system Sprague-Dawely rats; conditions: rat, po
Source text: Sprague-Dawely rats (SPF grade) used in this experiment were purchased from Zhejiang Charles River Experimental Animal Technology Co., Ltd. with the production license No. SCXK (Zhe) 2019-0001 and the animal qualification certificate No. 20220107Aazz0619000738 and 20220107Aazz0619000691. A body weight range of males was 206.6 g to 234.5 g, and a body weight range of females was 188.4 g to 205.9 g.
In this experiment, all animals were randomly divided into 5 groups (5 animals/sex/group), received the drug at 97 mg/kg, 174 mg/kg, 312 mg/kg, 559 mg/kg, and 1000 mg/kg, respectively, and received signal intragastric administration orally. […] All animals received administration according to their latest weighed body weight. The drug was stirred for at least 10 min before administration, and continuously stirred during administration until the administration of the sample at this concentration was completed. […]
All animals underwent a comprehensive physical examination by a veterinarian before administration. […] All surviving animals were weighed once on the day of random grouping (Day-1), Day 1 (before administration), Day 3, Day 5, Day 7, and Day 8; and their 24±1-hour food consumption was measured once on Day 1 (Day 1 to Day 2), Day 2 (Day 2 to Day 3), and Day 6 (Day 6 to Day 7). […]

[3] = Urine and fecal excretion after single intragastric administration; conditions: dog, po, 6 mg/kg
Description: The preparations were freshly prepared on the day of administration, and sampled for determination of preparation concentration.
Six Beagle dogs (half male and half female) were fasted overnight in metabolic cages the day before the experiment. Before administration, urine and feces of each animal were collected as baseline (0 h) samples. On the day of administration, Beagle dogs received single intragastric administration of the drug at 6 mg/kg. Four hours after administration, the animals resumed feeding and had free access to water during the experiment.
After urine collection is completed, the volume was measured and recorded. Part of the collected urine was taken, methanol was added to dilute the urine in a urine-to-methanol volume ratio of 4: 1 (v/v). After vortex mixing, the mixture was divided into 2 portions. After fecal samples at different time periods were collected, the food residues on the surface were removed and the feces were weighed. […] After the last sampling of the urine and feces excretion experimental group was completed, the metabolic cages were rinsed with 2000 mL of water: ethanol (1: 1, v: v) and the rinse solution of each cage was collected. After the rinse solution was thoroughly shaken, 1 mL was immediately taken, placed into a 1.5 mL EP tube, and stored in a -90°C to 60°C refrigerator together with the urine and feces homogenate until sample analysis.
The drug concentration in the excretion samples of the animal in each group at different time periods was detected by LC-MS/MS, and an excretion rate and a cumulative excretion rate in each time period were calculated.

SMILES: CC[S@@](=N)(=O)C[C@H]1CC[C@H](N(C)c2ncnc3[nH]ccc23)CC1 [Free crystal form A]
- S: solubility ([1]; FaSSIF, 1 h, 60 min): 2200 µg/mL
- S: solubility ([1]; FaSSIF, 2 h, 120 min): 2200 µg/mL
- S: solubility ([1]; FaSSIF, 4 h, 240 min): 2300 µg/mL
- S: solubility ([1]; FaSSIF, 24 h, 1440 min): 2400 µg/mL
- S: solubility ([1]; H2O, 1 h, 60 min): 2100 µg/mL
- S: solubility ([1]; H2O, 2 h, 120 min): 2100 µg/mL
- S: solubility ([1]; H2O, 4 h, 240 min): 2200 µg/mL
- S: solubility ([1]; H2O, 24 h, 1440 min): 2400 µg/mL
- FC: crystal transfer ([1]; FaSSIF, 1 h): No
- FC: crystal transfer ([1]; FaSSIF, 2 h): No
- FC: crystal transfer ([1]; FaSSIF, 4 h): No
- FC: crystal transfer ([1]; FaSSIF, 24 h): No
- FC: crystal transfer ([1]; FeSSIF, 1 h): No
- FC: crystal transfer ([1]; FeSSIF, 2 h): No
- FC: crystal transfer ([1]; FeSSIF, 4 h): No
- FC: crystal transfer ([1]; FeSSIF, 24 h): No
- FC: crystal transfer ([1]; H2O, 1 h): No
- FC: crystal transfer ([1]; H2O, 2 h): No
- FC: crystal transfer ([1]; H2O, 4 h): No
- FC: crystal transfer ([1]; H2O, 24 h): No
- FC: crystal transfer ([1]; SGF, 1 h): No
- FC: crystal transfer ([1]; SGF, 2 h): No
- FC: crystal transfer ([1]; SGF, 4 h): No
- FC: crystal transfer ([1]; SGF, 24 h): No
- pH ([1]; FaSSIF, 1 h): 6.6
- pH ([1]; FaSSIF, 2 h): 6.6
- pH ([1]; FaSSIF, 4 h): 6.6
- pH ([1]; FaSSIF, 24 h): 6.6
- pH ([1]; FeSSIF, 1 h): 5.3
- pH ([1]; FeSSIF, 2 h): 5.3
- pH ([1]; FeSSIF, 4 h): 5.3
- pH ([1]; FeSSIF, 24 h): 5.3
- pH ([1]; H2O, 1 h): 6.7
- pH ([1]; H2O, 2 h): 6.6
- pH ([1]; H2O, 4 h): 6.7
- pH ([1]; H2O, 24 h): 7.3
- pH ([1]; SGF, 1 h): 5.1
- pH ([1]; SGF, 2 h): 5.2
- pH ([1]; SGF, 4 h): 5.2
- pH ([1]; SGF, 24 h): 5.2
- MTD at 168 h [2]: 174 mg/kg
- dose excreted at 120 h ([3]; cage rinse solution): 4.87 ± 3.09%
- dose excreted at 120 h ([3]; feces): 3.48 ± 0.663%
- dose excreted at 120 h ([3]; urine and feces): 47.3 ± 9.62%
- dose excreted at 120 h ([3]; urine, feces, cage rinse): 52.2%
- dose excreted at 120 h ([3]; urine): 43.8 ± 9.97%

Source: patent EP4660196A1, “CRYSTAL FORM OF COMPOUND, PREPARATION METHOD THEREFOR AND USE THEREOF” (Felicamed Biotechnology Co., Ltd., priority 2023, dated 2024)
